# Measured values: publication PMC6733504, “Effects of flavoring compounds used in electronic cigarette refill liquids on endothelial and vascular function” (PLoS ONE, 2019)
# Experiments:
# [1] = test system: endothelium-denuded rat aortic rings; assay: cAMP and cGMP levels in endothelium-denuded aortic rings; conditions: 10 µM
# From the text: 1 S4 Table. […]
# 2 endothelium-denuded rat aortic rings.
# Flavoring (fmol x mg-1) (fmol x mg-1)
# 4 En d o th e liu m-denuded rings, treated with test compounds as described in the
# 5 Materials and methods section of the main text, were freeze-clamped when maximal
# 6 relaxation had been reached. Rings were homogenized in 5% trichloroacetic acid
# 7 and analyzed for cAMP and cGMP by radioimmunoassay. Forskolin and DEA/NO
# 8 were used to induce maximal accumulation of cAMP and cGMP, respectively. Data
# 9 shown are mean values±SEM of 3 (forskolin and DEA/NO) or 6 (basal,
# 10 cinnamaldehyde and eugenol) rings; n.d., not determined, *p<0.05 vs. basal (ANOVA
# 11 and Dunnett's post hoc test).
# [2] = target: T1, soluble guanylate cyclase (sGC) (Bos taurus, UniProt P16068+P19687); assay: Activity of purified sGC stimulated with DEA/NO; type: biochemical, bovine; conditions: control
# T1 construct: The activity of sGC purified from bovine lung; from tissue; host or cells: bovine lung
# T1 sequence (P19687 1-691): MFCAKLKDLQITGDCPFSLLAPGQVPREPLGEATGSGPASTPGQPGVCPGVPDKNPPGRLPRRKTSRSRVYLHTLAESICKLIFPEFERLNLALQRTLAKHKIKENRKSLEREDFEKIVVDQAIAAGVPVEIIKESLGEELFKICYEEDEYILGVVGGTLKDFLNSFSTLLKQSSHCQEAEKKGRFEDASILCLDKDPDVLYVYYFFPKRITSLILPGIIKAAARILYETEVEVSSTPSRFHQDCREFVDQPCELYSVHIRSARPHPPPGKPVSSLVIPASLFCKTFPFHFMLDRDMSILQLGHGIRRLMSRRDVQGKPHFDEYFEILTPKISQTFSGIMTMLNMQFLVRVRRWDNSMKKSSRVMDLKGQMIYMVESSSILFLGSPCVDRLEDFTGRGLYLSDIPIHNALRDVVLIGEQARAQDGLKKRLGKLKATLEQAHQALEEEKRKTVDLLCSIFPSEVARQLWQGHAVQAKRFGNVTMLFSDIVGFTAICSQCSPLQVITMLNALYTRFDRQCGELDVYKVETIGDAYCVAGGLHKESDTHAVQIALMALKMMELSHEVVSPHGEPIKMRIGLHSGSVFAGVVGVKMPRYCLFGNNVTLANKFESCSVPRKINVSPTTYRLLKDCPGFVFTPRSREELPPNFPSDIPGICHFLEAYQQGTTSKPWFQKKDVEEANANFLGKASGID
# T1 sequence (P16068 1-619): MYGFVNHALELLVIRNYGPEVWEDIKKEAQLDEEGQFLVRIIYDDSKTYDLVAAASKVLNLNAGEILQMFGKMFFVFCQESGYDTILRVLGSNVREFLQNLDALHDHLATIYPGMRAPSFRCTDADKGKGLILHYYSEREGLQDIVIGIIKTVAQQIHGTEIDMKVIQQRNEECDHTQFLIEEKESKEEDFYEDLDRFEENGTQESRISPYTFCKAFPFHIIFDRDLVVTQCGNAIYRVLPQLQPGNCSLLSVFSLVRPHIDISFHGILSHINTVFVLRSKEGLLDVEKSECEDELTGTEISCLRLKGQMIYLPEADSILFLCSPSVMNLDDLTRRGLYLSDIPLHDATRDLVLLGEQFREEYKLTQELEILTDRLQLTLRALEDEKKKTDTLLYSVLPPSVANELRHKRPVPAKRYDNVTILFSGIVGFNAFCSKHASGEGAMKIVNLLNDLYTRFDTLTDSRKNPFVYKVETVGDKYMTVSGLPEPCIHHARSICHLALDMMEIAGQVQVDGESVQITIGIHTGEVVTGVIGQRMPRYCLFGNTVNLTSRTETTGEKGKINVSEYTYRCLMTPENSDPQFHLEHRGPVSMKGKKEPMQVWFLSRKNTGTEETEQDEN
# Experimental: The activity of sGC purified from bovine lung was determined as formation of [^32P]cGMP from [α-^32P]GTP. The purified enzyme (50 ng) was incubated at 37°C for 10 min in a final volume of 0.1 ml in the absence or presence of flavorings with the NO donor DEA/NO at concentrations indicated in the figure legends, followed by isolation of [^32P]cGMP and quantification of radioactivity (Cerenkov radiation) in a β counter.
# To test for reversibility of inhibition, sGC (50 ng) was preincubated in the absence or presence of the respective compounds for 5 minutes at 37°C, followed by 50-fold dilution in the assay mixtures and incubation with DEA/NO at 37°C for 10 minutes.
# rat aortic rings = assay: Relaxation of U-46619 precontracted aortic rings to DEA/NO; conditions: read-out: EC50 of vascular relaxation to DEA/NO
# Experimental: Animal experiments were performed in compliance with the Austrian law on experimentation with laboratory animals (last amendment 2013) based on the European Union guidelines for the Care and the Use of Laboratory Animals (European Union Directive 2010/63/EU). Unsexed Sprague-Dawley rats (obtained from Charles River, Sulzfeld, Germany) were housed at the local animal facility in approved cages. They were fed standard chow (Altromin 3023; obtained from Königshofer Futtermittel, Ebergassing, Austria) and received water ad libitum. Animals were euthanized in a box that was gradually filled with CO2 until vital signs had ceased (cessation of respiration and circulation). […]
# For isometric tension measurements, vessel rings with intact endothelium were suspended in 5-ml organ baths containing oxygenated Krebs-Henseleit buffer (concentrations in mM: NaCl 118.4, NaHCO3 25, KCl 4.7, KH2PO4 1.2, CaCl2 2.5, MgCl2 1.2, D-Glucose 11; pH 7.4), as previously described in detail. After equilibration for 60 min at the optimal resting tension of 20 mN, maximal contractile activity was determined with a depolarizing solution containing 60 mM K^+. […]
# Effects are expressed as percent of relaxation of U-46619-induced contraction. Concentration-response curves of different ring segments from a single animal were averaged and counted as an individual experiment.
smiles,measurement,setting,value
"CCN(CC)[N+]([O-])=NO [DEA/NO, 2,2-Diethyl-1-nitroso-oxyhydrazine, reference compound]",cGMP,[1],4917±1483 fmol x mg-1
same,Maximal sGC activity with DEA/NO,[2]; no flavoring,28±0.9 μmol cGMP x min^-1 x mg^-1
same,EC50,"[2]; no flavoring (0.1% DMSO), 95% CI, read-out: EC50 of DEA/NO for sGC stimulation",37 nM
same,EC50,rat aortic rings,43 nM
